pIC50: −log10 of the molar value. Activity calls are given as the source filed them. The calls are words filed in the database; no cut-off is given here. Some results are limits rather than exact numbers.

The values that follow come from ChEMBL document CHEMBL3817836, “One small molecule as a theranostic agent: naphthalimide dye for subcellular fluorescence localization and photodynamic therapy in vivo” (Medchemcomm, 2016).

Data set [1] can be described thus: Toxicity against human MCF7 cells assessed as reduction in cell viability measured after 48 hrs by MTT assay. The format is cell-based.
Data set [2] relates to MCF7. The data set can be described thus: Photo-cytotoxicity against human MCF7 cells assessed as reduction in cell viability incubated for 48 hrs followed by 28.8 J/cm2 laser irradiation for 20 mins by MTT assay. The format is functional, cell-based. Conditions: MCF7, light or radiation study. On the technique in general: Tetrazolium assays rely on reduction of a dye to a coloured formazan, in cell work by metabolically active cells.

Data set [3] concerns A-375. The data set can be described thus: Induction apoptosis in human A375 cells xenografted into nude mouse exposed to 28.8 J/cm2 laser irradiation at 5 mg/kg administered twice week measured after 21 days by TUNEL assay. The format is functional, organism-based. A general note: Xenograft models place foreign cells or tissue in a host animal.
Data set [4] relates to A-375. Kind of data set: Antitumor activity against human A375 cells xenografted in nude mouse exposed to 28.8 J/cm2 laser irradiation assessed as tumor size at 5 mg/kg administered twice week measured after 21 days (reference value: 4.31 +/- 0.38). The format is functional.
For data set [5], the system named is A-375. Kind of data set: Induction apoptosis in human A375 cells xenografted into nude mouse exposed to 28.8 J/cm2 laser irradiation assessed as increase in cleaved capase-3 level at 5 mg/kg administered twice week measured after 21 days by immunohistochemistry assay. The format is functional, organism-based.
Data set [6] deals with A-375. The data set can be described thus: Induction apoptosis in human A375 cells xenografted into nude mouse at 5 mg/kg administered twice week measured after 21 days by TUNEL assay. In kind it is functional, organism-based.
Data set [7] deals with Mus musculus. Kind of data set: Toxicity in nude mouse xenografted with human A375 cells assessed as tissue lesions at 5 mg/kg by hematoxylin-eosin staining method. In kind it is organism-based, A-375. As to conditions: in vivo.
In data set [8] the test system is A-375. Kind of data set: Induction of apoptosis in human A375 cells exposed to 28.8 J/cm2 laser irradiation assessed as increase in intracellular ROS using DCFH-DA after 4 hrs by spectrofluorimetric method. In kind it is functional, cell-based.
A short description of data set [9]: Cellular uptake in mitochondria of human […] cells at 2.5 uM incubated for 48 hrs followed by 28.8 J/cm2 laser irradiation for 20 mins by Mitotracker Red dye based confocal microscopy. The format is ADME.
In data set [10] the test system is Mus musculus. Kind of data set: Toxicity in nude mouse xenografted with human A375 cells assessed as change in body weight at 5 mg/kg administered twice a week measured after 21 days. Conditions: in vivo, 504 h. In kind it is organism-based, A-375.
In data set [11] the test system is A-375. Kind of data set: Photo-cytotoxicity against human A375 cells assessed as induction of cell death incubated for 48 hrs followed by 28.8 J/cm2 laser irradiation dose 20 mins by MTT assay. In kind it is functional, cell-based.
In data set [12] the test system is A-375. Kind of data set: Induction of apoptosis in human A375 cells exposed to 28.8 J/cm2 laser irradiation assessed as nuclear condensation measured after 12 hrs by TUNEL assay. In kind it is functional, cell-based.
A further data set concerns HCT-116. Kind of data set: Photo-cytotoxicity against human HCT116 cells assessed as induction of cell death incubated for 48 hrs followed by 28.8 J/cm2 laser irradiation dose 20 mins by MTT assay. The format is functional, cell-based.
In data set [13] the test system is A-375. The data set can be described thus: Induction of apoptosis in human A375 cells exposed to 28.8 J/cm2 laser irradiation assessed as increase in intracellular ROS using DCFH-DA after 12 hrs by spectrofluorimetric method. The format is functional, cell-based.
A further data set concerns MKN-45. Kind of data set: Photo-cytotoxicity against human MKN45 cells assessed as induction of cell death incubated for 48 hrs followed by 28.8 J/cm2 laser irradiation dose 20 mins by MTT assay. The format is functional, cell-based.
In data set [14] the test system is A-375. Kind of data set: Induction of apoptosis in human A375 cells exposed to 28.8 J/cm2 laser irradiation assessed as nuclear fragmentation measured after 12 hrs by TUNEL assay. In kind it is functional, cell-based.
For data set [15], the system named is A-375. The data set can be described thus: Cellular uptake in human A375 cells at 2.5 uM incubated for 48 hrs followed by 28.8 J/cm2 laser irradiation for 20 mins by fluorescence microscopic imaging method. In kind it is ADME, cell-based. Conditions: a-375, 48 h.
The test system of data set [16] is Mus musculus. The data set can be described thus: Toxicity in nude mouse xenografted with human A375 cells exposed to 28.8 J/cm2 laser irradiation assessed as tissue lesions at 5 mg/kg by hematoxylin-eosin staining method. The format is organism-based, A-375. Conditions: in vivo.
Data set [17] is described as follows: Cellular uptake in lysosome of human […] cells at 2.5 uM incubated for 48 hrs followed by 28.8 J/cm2 laser irradiation for 20 mins by lysosome Red dye based confocal microscopy. In kind it is ADME, cell-based.
In data set [18] the test system is Mus musculus. The data set can be described thus: Toxicity in nude mouse xenografted with human A375 cells exposed to 28.8 J/cm2 laser irradiation assessed as change in body weight at 5 mg/kg administered twice a week measured after 21 days. The format is organism-based, A-375. As to conditions: in vivo, 504 h.
For data set [19], the system named is A-375. The data set can be described thus: Antitumor activity against human A375 cells xenografted in nude mouse assessed as tumor size at 5 mg/kg administered twice week measured after 21 days (reference value: 4.31 +/- 0.38). In kind it is functional.
For data set [20], the system named is A-375. Kind of data set: Induction of apoptosis in human A375 cells exposed to 28.8 J/cm2 laser irradiation assessed as increase in PARP cleavage by western blot analysis. The format is functional, cell-based. Conditions: TDE = time-dependent effect. Background: In western blotting, separated proteins are transferred to a membrane and probed.
Data set [21] concerns A-375. Kind of data set: Induction of apoptosis in human A375 cells exposed to 28.8 J/cm2 laser irradiation assessed as increase in caspase3 cleavage by western blot analysis. In kind it is functional, cell-based. As to conditions: TDE = time-dependent effect.
A short description of data set [22]: Cellular uptake in nucleus of human […] cells at 2.5 uM incubated for 48 hrs followed by 28.8 J/cm2 laser irradiation for 20 mins by DAPI dye based confocal microscopy. The format is ADME, cell-based.
Data set [23] concerns A-375. Kind of data set: Induction of apoptosis in human A375 cells exposed to 28.8 J/cm2 laser irradiation assessed as apoptotic bodies measured after 12 hrs by TUNEL assay. In kind it is functional, cell-based.
Data set [24] deals with MCF7. The data set can be described thus: Photo-cytotoxicity against human MCF7 cells assessed as induction of cell death incubated for 48 hrs followed by 28.8 J/cm2 laser irradiation dose 20 mins by MTT assay. In kind it is functional, cell-based.
The nature of data set [25]: Cellular uptake in endoplasmic reticulum of human […] cells at 2.5 uM incubated for 48 hrs followed by 28.8 J/cm2 laser irradiation for 20 mins by ER tracker Red dye based confocal microscopy. The format is ADME, cell-based.

What is called IC50 is the concentration that inhibits the measured activity by half. A word on the pIC50: it is −log10 of the IC50, conventionally taken in molar units. Take `O=C1c2cccc3c2c(cc2c4cc(Br)ccc4sc32)C(=O)N1CCOCCO`: the 50% inhibitory concentration (IC50) at 48 h in data set [1] is over 50 µM. Besides, the negative logarithm of the IC50 (pIC50) with MCF7 [2] is 4.73.

For `O=c1c2ccc3sc4ccccc4c4ccc(c(=O)n1CCOCCO)c2c34`, in [1], the IC50 at 48 h is 18.2 µM. Besides, in the data set with MCF7 [2], the negative logarithm of the IC50 (pIC50) was 5.85.

As to `O=C1c2cccc3c2c(cc2c4ccccc4sc32)C(=O)N1CCOCCO`, the 50% inhibitory concentration (IC50) at 48 h in data set [1] was determined as 18.8 µM. For the same molecule, the pIC50 with MCF7 [2] was 4.94.

Consider `O=c1c2ccc3sc4ccc(Br)cc4c4ccc(c(=O)n1CCOCCO)c2c34`, for which the result with A-375 [3], in the data set on A-375 [5], with A-375 [8], with A-375 [12], with A-375 [14] and with A-375 [23] was Active. The figures for the “fold change (FC)” value with A-375 [4] and in the data set with A-375 [19] were 0.5 and 3, respectively. For the same molecule, the result in the data set with A-375 [6] and in the data set on A-375 [13] was inactive. Also, the Activity result in the data set with Mus musculus [7] is “Toxic”; with Mus musculus [10], “Non-toxic”; in the data set with A-375 [11], “Dose-dependent effect”; with HCT-116 it was “Dose-dependent effect”; with MKN-45 it was “Dose-dependent effect”; in the data set with Mus musculus [16], “Toxic”. Besides, the Activity entry with Mus musculus [18] is “Non-toxic”; in the data set on A-375 [20], “tde”; in the data set with A-375 [21], “tde”; in the data set on MCF7 [24], “Dose-dependent effect”. The Drug uptake result in data set [9] is “Active”; in the data set with A-375 [15], “Active”; in [17], “Not Active”; in [22] it was “Not Active”; in [25], “Not Active”. In addition, in [1], the IC50 at 48 h is over 50 µM. Further, the pIC50 in the data set with MCF7 [2] was 5.58.
